Results published in ChEMBL document CHEMBL3621135 (ACS Med Chem Lett, 2015).

Key:
[1] = Antiproliferative activity against human SET2 cells incubated for 72 hrs by [3H] thymidine incorporation assay; type: functional, cell-based; details: SET-2
[2] = target: T1, Tyrosine-protein kinase JAK3 (Homo sapiens, UniProt P52333); test: Inhibition of recombinant JAK3 (unknown origin) using 5-FAM-KKKKEEIYFFFG-OH substrate and ATP incubated for 180 mins by […] method
T1 sequence (P52333 whole entry): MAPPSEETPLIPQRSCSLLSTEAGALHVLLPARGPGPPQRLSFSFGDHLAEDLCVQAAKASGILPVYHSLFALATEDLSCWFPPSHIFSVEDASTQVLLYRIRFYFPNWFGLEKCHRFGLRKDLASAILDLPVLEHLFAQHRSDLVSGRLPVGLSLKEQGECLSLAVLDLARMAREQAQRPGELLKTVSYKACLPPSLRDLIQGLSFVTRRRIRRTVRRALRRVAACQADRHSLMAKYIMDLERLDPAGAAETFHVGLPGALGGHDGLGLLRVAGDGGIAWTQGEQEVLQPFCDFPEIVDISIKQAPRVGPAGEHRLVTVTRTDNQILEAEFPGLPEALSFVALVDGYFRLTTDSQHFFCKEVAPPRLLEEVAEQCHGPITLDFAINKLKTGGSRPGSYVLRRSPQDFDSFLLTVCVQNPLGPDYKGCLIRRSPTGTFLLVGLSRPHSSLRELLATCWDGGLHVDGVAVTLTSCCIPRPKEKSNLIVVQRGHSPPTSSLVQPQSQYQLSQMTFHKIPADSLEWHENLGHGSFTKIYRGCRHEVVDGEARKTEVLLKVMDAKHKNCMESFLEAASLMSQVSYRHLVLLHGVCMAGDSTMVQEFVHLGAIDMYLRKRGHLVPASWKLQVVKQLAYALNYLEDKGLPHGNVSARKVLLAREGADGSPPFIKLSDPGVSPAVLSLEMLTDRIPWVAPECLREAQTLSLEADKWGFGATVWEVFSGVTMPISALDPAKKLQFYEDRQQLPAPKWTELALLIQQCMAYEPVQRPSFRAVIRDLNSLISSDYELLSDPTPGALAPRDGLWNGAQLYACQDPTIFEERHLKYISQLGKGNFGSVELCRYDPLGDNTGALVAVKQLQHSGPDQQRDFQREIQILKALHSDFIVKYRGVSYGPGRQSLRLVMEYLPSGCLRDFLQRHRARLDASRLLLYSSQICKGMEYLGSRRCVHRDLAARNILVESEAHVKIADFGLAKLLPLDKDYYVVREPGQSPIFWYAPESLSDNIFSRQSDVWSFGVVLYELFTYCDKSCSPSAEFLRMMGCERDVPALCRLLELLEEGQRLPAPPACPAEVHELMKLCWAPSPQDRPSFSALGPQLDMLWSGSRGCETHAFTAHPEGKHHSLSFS

[3] = target: Tyrosine-protein kinase JAK1 (Homo sapiens, UniProt P23458); test: Inhibition of recombinant JAK1 (unknown origin) using 5-FAM-KKKKEEIYFFFG-OH substrate and ATP incubated for 180 mins by […] method
Chain of Tyrosine-protein kinase JAK1 (P23458 whole entry): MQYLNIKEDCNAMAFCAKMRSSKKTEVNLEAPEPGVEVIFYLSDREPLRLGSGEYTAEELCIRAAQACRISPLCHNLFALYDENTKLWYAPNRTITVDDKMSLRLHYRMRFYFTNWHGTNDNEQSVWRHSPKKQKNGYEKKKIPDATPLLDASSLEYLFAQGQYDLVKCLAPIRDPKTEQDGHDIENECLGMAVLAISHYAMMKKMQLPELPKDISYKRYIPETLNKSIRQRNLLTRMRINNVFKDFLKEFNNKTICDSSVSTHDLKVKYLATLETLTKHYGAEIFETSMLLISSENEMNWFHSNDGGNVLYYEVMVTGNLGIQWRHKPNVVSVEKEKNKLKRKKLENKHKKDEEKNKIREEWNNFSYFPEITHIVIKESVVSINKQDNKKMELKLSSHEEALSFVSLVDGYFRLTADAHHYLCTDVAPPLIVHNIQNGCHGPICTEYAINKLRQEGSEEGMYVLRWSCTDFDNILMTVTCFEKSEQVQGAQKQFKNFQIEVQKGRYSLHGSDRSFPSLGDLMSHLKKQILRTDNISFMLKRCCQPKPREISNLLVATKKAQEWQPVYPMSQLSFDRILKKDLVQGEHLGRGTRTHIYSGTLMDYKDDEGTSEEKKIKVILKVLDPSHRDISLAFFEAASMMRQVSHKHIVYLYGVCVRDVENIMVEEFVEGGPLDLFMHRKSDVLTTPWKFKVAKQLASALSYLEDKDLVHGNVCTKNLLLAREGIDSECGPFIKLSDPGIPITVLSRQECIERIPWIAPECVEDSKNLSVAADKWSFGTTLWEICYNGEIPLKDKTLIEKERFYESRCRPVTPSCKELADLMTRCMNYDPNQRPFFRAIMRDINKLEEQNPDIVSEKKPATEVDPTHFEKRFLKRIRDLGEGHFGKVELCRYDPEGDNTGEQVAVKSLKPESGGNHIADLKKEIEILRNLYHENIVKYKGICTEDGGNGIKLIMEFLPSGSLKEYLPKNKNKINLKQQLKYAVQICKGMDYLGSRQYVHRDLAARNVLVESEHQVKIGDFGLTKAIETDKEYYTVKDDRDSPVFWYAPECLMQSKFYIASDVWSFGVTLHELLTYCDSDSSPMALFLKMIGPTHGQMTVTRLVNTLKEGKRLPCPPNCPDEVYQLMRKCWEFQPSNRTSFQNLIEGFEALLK

[4] = target: Tyrosine-protein kinase JAK2 (Homo sapiens, UniProt O60674); test: Inhibition of recombinant JAK2 (unknown origin) using 5-FAM-KKKKEEIYFFFG-OH substrate and ATP incubated for 180 mins by […] method
Chain of Tyrosine-protein kinase JAK2 (O60674 whole entry): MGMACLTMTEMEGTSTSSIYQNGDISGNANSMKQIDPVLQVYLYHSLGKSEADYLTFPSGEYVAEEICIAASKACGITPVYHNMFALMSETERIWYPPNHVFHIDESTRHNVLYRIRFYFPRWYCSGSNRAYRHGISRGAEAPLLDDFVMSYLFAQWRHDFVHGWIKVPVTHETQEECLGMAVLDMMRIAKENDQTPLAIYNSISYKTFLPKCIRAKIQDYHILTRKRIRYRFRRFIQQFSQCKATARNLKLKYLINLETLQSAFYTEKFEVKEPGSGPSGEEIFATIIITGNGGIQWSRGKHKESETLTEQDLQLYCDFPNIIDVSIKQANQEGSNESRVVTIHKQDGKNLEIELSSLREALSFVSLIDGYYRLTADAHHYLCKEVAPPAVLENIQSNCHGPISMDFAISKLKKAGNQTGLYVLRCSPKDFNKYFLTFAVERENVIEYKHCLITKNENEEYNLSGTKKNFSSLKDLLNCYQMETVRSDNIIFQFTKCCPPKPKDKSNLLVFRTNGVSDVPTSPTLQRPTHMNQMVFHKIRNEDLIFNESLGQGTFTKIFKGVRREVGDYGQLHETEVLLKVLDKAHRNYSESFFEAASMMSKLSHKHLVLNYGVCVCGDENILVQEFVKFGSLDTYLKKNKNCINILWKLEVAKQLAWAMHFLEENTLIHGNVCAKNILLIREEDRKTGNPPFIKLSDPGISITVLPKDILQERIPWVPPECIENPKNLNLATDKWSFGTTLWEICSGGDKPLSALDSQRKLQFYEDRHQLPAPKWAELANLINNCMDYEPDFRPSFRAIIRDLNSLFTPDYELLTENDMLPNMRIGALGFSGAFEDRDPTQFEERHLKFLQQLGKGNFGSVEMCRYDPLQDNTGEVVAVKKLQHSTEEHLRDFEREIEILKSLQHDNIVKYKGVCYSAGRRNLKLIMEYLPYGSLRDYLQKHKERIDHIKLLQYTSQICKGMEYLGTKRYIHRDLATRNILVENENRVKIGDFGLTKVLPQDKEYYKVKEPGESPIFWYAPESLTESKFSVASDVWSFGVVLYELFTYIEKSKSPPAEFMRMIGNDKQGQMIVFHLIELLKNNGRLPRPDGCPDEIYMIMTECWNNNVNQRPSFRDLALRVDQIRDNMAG

[5] = test system: Liver microsome; test: Drug metabolism in human liver microsomes assessed as thiourea formation at 10 uM in presence of NADPH by HPLC/UV/MS method; type: ADME
[6] = target: hERG (Homo sapiens, UniProt Q12809); test: Inhibition of human ERG channel at 30 uM
Chain of hERG (Q12809 whole entry): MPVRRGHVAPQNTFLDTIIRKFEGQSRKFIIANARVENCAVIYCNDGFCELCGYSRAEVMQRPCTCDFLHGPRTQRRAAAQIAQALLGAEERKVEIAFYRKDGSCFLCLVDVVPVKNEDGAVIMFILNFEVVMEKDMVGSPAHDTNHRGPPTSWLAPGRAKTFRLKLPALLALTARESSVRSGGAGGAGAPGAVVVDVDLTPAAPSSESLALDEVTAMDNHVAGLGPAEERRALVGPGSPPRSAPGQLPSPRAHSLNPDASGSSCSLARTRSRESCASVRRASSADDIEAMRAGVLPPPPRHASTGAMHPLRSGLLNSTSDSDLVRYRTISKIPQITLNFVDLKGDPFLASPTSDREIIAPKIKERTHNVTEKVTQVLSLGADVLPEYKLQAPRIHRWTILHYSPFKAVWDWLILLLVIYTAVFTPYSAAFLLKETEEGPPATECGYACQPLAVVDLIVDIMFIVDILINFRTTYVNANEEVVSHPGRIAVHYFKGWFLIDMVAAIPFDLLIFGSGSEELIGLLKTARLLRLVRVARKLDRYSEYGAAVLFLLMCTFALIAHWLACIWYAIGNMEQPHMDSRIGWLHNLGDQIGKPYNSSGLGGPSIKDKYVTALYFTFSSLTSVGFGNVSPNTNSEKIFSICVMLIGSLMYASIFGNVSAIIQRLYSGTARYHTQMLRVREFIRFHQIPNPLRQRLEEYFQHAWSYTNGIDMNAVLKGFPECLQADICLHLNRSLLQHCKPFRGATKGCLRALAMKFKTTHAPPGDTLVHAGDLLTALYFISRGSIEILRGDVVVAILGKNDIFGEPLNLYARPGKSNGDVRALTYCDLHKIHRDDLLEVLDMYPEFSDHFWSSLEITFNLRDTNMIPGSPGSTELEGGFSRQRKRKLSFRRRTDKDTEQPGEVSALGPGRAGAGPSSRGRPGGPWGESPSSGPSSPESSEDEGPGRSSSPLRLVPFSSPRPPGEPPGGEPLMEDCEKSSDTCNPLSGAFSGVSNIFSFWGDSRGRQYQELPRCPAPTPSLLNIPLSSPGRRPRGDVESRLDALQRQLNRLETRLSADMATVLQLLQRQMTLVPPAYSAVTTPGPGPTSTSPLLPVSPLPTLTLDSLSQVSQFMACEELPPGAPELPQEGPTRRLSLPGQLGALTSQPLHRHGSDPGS

[7] = target: Non-receptor tyrosine-protein kinase TYK2 (Homo sapiens, UniProt P29597); test: Inhibition of recombinant TYK2 (unknown origin) by scintillation counting method
Chain of Non-receptor tyrosine-protein kinase TYK2 (P29597 whole entry): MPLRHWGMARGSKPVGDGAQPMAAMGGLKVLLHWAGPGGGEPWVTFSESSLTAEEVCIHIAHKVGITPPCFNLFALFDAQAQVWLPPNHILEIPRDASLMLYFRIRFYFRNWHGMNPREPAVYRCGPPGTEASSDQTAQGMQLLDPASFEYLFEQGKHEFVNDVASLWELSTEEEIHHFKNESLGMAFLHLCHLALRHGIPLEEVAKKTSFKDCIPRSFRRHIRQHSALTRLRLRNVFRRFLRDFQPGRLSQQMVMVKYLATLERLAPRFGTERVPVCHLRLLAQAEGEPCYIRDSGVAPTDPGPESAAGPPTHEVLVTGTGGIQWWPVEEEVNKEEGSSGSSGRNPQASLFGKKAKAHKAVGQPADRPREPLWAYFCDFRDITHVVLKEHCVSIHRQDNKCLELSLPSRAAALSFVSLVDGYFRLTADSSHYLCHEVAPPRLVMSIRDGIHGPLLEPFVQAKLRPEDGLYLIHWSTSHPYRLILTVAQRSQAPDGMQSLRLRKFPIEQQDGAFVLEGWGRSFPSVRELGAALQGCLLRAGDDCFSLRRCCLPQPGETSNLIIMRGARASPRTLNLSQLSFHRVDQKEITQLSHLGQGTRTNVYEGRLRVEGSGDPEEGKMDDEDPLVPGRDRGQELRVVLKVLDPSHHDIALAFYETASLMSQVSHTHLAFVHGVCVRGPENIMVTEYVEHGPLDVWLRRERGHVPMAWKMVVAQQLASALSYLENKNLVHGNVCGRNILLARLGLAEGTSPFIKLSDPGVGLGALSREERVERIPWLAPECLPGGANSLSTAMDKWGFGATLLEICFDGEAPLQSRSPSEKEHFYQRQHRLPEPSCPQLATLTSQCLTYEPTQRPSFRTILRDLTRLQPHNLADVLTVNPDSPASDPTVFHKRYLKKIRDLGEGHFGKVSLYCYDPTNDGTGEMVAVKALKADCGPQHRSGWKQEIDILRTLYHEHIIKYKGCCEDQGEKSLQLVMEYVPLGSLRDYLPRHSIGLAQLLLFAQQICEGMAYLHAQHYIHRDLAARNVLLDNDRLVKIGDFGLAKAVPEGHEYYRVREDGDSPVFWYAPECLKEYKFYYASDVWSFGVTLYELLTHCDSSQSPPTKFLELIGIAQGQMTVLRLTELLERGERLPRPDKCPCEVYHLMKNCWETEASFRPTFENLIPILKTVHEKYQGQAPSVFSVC

| Compound | IC50 [2] | IC50 [3] | IC50 [4] | Drug metabolism [5] | IC50 [7] | IC50 [1] | inhibition at 30 µM [6] |
| --- | --- | --- | --- | --- | --- | --- | --- |
| CCn1c(C(=O)N(C2CC2)C2CC2)cc2c3c(ncn3C)c(Nc3nc(C)n(C)n3)nc21 | 3.8 µM | 6 µM | 0.033 µM |  |  | 1.3 µM |  |
| CCn1c(C(=O)N(C2CC2)C2CC2)cc2c3c(ncn3C)c(Nc3nc(C)c(C(=O)N4CCS(=O)(=O)CC4)s3)nc21 | 0.031 µM | 0.048 µM | 0.0007 µM |  |  | 0.33 µM |  |
| CCn1c(C(=O)N(C2CC2)C2CC2)cc2c3c(ncn3C)c(Nc3nc(C)c(C(=O)NC)s3)nc21 | 0.019 µM | 0.019 µM | 0.0009 µM | metabolite_detected |  | 0.12 µM |  |
| CCn1c(C(=O)N(C2CC2)C2CC2)cc2c3c(ncn3C)c(Nc3nc(C)c(S(C)(=O)=O)s3)nc21 | 0.052 µM | 0.04 µM |  | metabolite_detected |  | 0.051 µM |  |

The remaining molecules from weak to strong by IC50 [2], led by results:

| IC50 [2] | IC50 [3] | IC50 [4] | Drug metabolism [5] | IC50 [7] | Compound | IC50 [1] | inhibition at 30 µM [6] |
| --- | --- | --- | --- | --- | --- | --- | --- |
| 5 µM | 0.54 µM | 0.23 µM |  | 2.3 µM | CCn1c(C(=O)N(C2CC2)C2CC2)cc2c3c(ncn3C)c(Nc3cc(C)nn3C)nc21 | > 2 µM |  |
| 0.46 µM | 0.25 µM | 0.0014 µM |  |  | CCc1nc(Nc2nc3c(cc(C(=O)N(C4CC4)C4CC4)n3CC)c3c2ncn3C)sc1C | 0.092 µM |  |
| 0.21 µM | 0.33 µM |  |  | 0.22 µM | CCn1nc(Nc2nc3c(cc(C(=O)N(C4CC4)C4CC4)n3CC)c3c2ncn3C)cc1C | 0.055 µM | 75% |
| 0.087 µM | 0.016 µM | 0.0012 µM |  | 0.0019 µM | CCn1c(C(=O)N(C2CC2)C2CC2)cc2c3c(ncn3C)c(Nc3cc(C)[nH]n3)nc21 | 0.053 µM |  |
| 0.049 µM | 0.022 µM | 0.0031 µM | metabolite_detected |  | CCn1c(C(=O)N(C2CC2)C2CC2)cc2c3c(ncn3C)c(Nc3nc(C(=O)NC)c(C)s3)nc21 | 0.1 µM |  |
